Measured values taken from patent publication US20250368648A1, “MULTI-CYCLIC IRAK AND FLT3 INHIBITING COMPOUNDS AND USES THEREOF” (CHILDREN'S HOSPITAL MEDICAL CENTER, priority 2022, published 2025).

Experiments:
Type in all cases: biochemical
Conditions in all cases: HotSpot functional assay, isolated kinase enzyme, 33P-ATP
IRAK1 = biological target: T1, IRAK1 (Homo sapiens, UniProt P51617); assay: RBC HotSpot Kinase Assay, IRAK1
T1 construct: purchased RBC (Reaction Biology) HotSpot assay
Description: (§1) This assay uses the isolated kinase enzyme. This assay is very useful for determining competition of the inhibitor for ATP and/or substrates and for measuring the kinetics of enzyme inhibition. […] Unlike kinase binding assays that measure competition for ATP, the HotSpot Kinase Assay is a functional assay that measures catalytic activity; as such it measures relative functional potency regardless of the mechanism of enzyme inhibition. This assay uses the form of the various enzymes that are easiest to express, which may not necessarily be the form of the enzyme that exist in the cell. (Sometimes the carboxy terminus has been truncated to aid in expression, or, if it is a receptor kinase, the enzyme itself is isolated from the other parts of the receptor that are involved in regulating kinase activity.)
(§2) The reagent used was as follows: Base Reaction buffer; 20 mM Hepes (pH 7.5), 10 mM MgCl2, 1 mM EGTA, 0.01% Brij35, 0.02 mg/mi BSA, 0.1 mM Na3VO4, 2 mM DTT, 1% DMSO. Required cofactors were added individually to each kinase reaction.
(§3) The reaction procedure was as follows: • 1) Substrates were prepared in freshly prepared Reaction Buffer. • 2) Any required cofactors were delivered to the substrate solution above. • 3) Kinase was delivered into the substrate solution and gently mixed. • 4) Compounds were delivered in 100% DMSO into the kinase reaction mixture by Acoustic technology (Echo550, nanoliter range), followed by incubation for 20 min at room temp. • 5) ^33P-ATP was delivered into the reaction mixture to initiate the reaction. • 6) The mixture was incubated for 2 hours at room temperature. • 7) Kinase activity was detected by P81 filter-binding method.

IRAK4 = biological target: T2, IRAK4 (Homo sapiens, UniProt Q9NWZ3); assay: RBC HotSpot Kinase Assay, IRAK4; set-up: purchased RBC (Reaction Biology) HotSpot assay
T2 sequence (Q9NWZ3 1-460): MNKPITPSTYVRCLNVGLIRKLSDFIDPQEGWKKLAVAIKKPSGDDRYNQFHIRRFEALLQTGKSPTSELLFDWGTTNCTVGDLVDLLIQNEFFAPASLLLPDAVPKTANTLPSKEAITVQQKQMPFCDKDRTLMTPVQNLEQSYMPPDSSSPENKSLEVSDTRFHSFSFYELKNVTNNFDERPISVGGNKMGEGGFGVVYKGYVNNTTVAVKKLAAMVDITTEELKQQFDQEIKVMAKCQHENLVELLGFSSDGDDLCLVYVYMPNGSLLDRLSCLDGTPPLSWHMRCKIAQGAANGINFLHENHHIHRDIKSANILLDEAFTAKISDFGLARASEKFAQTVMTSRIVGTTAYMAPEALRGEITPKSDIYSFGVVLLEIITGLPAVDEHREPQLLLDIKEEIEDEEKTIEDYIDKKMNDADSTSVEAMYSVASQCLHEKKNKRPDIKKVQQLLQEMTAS
Description: as §1, §2, §3

FLT3 = biological target: T3, FLT3 (Homo sapiens, UniProt P36888); assay: RBC HotSpot Kinase Assay, FLT3; set-up: purchased RBC (Reaction Biology) HotSpot assay
T3 sequence (P36888 27-993): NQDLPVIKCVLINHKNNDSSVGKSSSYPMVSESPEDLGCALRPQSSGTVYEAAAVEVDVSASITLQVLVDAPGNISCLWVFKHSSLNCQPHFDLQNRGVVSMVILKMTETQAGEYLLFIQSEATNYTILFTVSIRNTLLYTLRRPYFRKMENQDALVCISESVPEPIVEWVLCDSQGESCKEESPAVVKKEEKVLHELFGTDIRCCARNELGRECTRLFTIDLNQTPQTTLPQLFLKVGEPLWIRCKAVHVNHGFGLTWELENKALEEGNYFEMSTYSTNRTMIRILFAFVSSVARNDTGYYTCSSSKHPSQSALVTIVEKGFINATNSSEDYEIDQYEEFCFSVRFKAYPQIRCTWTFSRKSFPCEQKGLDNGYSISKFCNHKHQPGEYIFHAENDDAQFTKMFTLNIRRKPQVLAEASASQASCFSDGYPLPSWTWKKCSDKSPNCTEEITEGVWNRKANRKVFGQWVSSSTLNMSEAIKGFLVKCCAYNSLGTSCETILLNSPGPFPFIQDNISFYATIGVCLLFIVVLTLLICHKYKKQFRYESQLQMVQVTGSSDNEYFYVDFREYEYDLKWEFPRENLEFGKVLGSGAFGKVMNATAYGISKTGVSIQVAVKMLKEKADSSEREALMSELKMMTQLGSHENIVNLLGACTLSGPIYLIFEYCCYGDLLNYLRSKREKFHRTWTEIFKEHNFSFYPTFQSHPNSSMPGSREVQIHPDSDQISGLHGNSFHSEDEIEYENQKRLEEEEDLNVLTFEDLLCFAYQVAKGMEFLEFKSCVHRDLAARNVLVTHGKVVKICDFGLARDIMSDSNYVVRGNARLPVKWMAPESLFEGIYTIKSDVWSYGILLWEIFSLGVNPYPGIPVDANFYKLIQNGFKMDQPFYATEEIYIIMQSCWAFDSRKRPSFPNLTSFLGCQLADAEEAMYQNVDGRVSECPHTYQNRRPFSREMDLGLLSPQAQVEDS
Description: as §1, §2, §3

T1 sequence (P51617 whole entry): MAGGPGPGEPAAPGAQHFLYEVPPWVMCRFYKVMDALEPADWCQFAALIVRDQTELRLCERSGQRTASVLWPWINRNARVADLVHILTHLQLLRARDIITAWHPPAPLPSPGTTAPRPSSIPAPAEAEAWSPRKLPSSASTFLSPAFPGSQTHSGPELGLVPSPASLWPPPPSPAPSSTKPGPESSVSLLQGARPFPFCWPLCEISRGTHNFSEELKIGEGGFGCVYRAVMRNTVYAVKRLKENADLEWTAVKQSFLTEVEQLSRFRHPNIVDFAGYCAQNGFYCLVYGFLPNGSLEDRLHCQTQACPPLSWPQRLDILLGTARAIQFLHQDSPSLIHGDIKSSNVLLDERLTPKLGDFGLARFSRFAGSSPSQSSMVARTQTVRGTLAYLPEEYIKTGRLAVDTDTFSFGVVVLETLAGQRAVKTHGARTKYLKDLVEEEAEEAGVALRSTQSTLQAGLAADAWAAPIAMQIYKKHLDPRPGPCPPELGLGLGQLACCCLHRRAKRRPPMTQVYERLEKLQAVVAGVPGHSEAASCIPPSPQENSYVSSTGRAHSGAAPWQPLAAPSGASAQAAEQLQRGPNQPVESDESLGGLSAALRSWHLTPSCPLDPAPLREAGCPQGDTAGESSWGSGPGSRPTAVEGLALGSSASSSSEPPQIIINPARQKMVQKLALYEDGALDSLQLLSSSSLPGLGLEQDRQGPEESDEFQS

Compound COc1cc2ncc(-c3nc(N[C@H]4CNC[C@@H]4F)c(F)cc3F)n2nc1N1CCCC1=O [Compound 24a, 1-(3-(3,5-difluoro-6-(((3S,4S)-4-fluoropyrrolidin-3-yl)amino)pyridin-2-yl)-7-methoxyimidazo[1,2-b]pyridazin-6-yl)pyrrolidin-2-one] has an IC50 (IRAK1) of 186 nM, an IC50 (IRAK4) of 11 nM and an IC50 (FLT3) of 1 nM.
COc1cc2ncc(-c3ccc(C#N)c(N[C@H]4CNC[C@@H]4F)n3)n2nc1C1CC1 [Compound 27a, 6-(6-cyclopropyl-7-methoxyimidazo[1,2-b]pyridazin-3-yl)-2-(((3S,4S)-4-fluoropyrrolidin-3-yl)amino) nicotinonitrile] was tested, and the IC50 (IRAK1) was 5 nM, the IC50 (IRAK4) was less than 0.5 nM and the IC50 (FLT3) was less than 0.5 nM.
Compound COc1cc2ncc(-c3nc(N[C@@H]4CCCNC4)ccc3C#N)n2nc1C1CC1 [Compound 30a, (R)-2-(6-cyclopropyl-7-methoxyimidazo[1,2-b]pyridazin-3-yl)-6-(piperidin-3-ylamino)nicotinonitrile] has an IC50 (IRAK1) of 2290 nM, an IC50 (IRAK4) of 110 nM and an IC50 (FLT3) of 48 nM.
Work on COc1cc2ncc(-c3nc(N[C@H]4CNCC[C@@H]4F)ccc3C#N)n2nc1C1CC1 [Compound 31a, 2-(6-cyclopropyl-7-methoxyimidazo[1,2-b]pyridazin-3-yl)-6-(((3S,4S)-4-fluoropiperidin-3-yl)amino)nicotinonitrile] yielded an IC50 (IRAK1) of 1110 nM, an IC50 (IRAK4) of 10 nM and an IC50 (FLT3) of 43 nM.
Work on COc1ccc(N[C@@H]2CCCNC2)nc1-c1cnc2cc(OC)c(C3CC3)nn12 [Compound 32a, (R)-6-(6-cyclopropyl-7-methoxyimidazo[1,2-b]pyridazin-3-yl)-5-methoxy-N-(piperidin-3-yl)pyridin-2-amine] yielded an IC50 (IRAK1) greater than 10000 nM, an IC50 (IRAK4) of 853 nM and an IC50 (FLT3) of 80 nM.
In the case of COc1ccc(-c2cnc3cc(OC)c(C4CC4)nn23)nc1N[C@H]1CNC[C@@H]1F [Compound 33a, 6-(6-cyclopropyl-7-methoxyimidazo[1,2-b]pyridazin-3-yl)-N-((3S,4S)-4-fluoropyrrolidin-3-yl)-3-methoxypyridin-2-amine], the IC50 (IRAK1) is reported as greater than 10000 nM, the IC50 (IRAK4) is reported as 47 nM and the IC50 (FLT3) is reported as less than 0.5 nM.
With COc1ccc(-c2cnc3cc(OC)c(C4CC4)nn23)nc1N[C@@H]1CCCNC1 [Compound 34a, (R)-6-(6-cyclopropyl-7-methoxyimidazo[1,2-b]pyridazin-3-yl)-3-methoxy-N-(piperidin-3-yl)pyridin-2-amine] the IC50 (IRAK1) was greater than 10000 nM, the IC50 (IRAK4) was 202 nM and the IC50 (FLT3) was less than 0.5 nM.
Compound COc1ccc(-c2cnc3cc(OC)c(C4CC4)nn23)nc1N[C@H]1CNCC[C@@H]1F [Compound 35a, 6-(6-cyclopropyl-7-methoxyimidazo[1,2-b]pyridazin-3-yl)-N-((3S,4S)-4-fluoropiperidin-3-yl)-3-methoxypyridin-2-amine] has an IC50 (IRAK1) greater than 10000 nM, an IC50 (IRAK4) of 55 nM and an IC50 (FLT3) of less than 0.5 nM.
For COc1ccc(N[C@H]2CNC[C@@H]2F)nc1-c1cnc2cc(OC)c(C3CC3)nn12 [Compound 36a, 6-(6-cyclopropyl-7-methoxyimidazo[1,2-b]pyridazin-3-yl)-N-((3S,4S)-4-fluoropyrrolidin-3-yl)-5-methoxypyridin-2-amine], the IC50 (IRAK1) was greater than 10000 nM, the IC50 (IRAK4) was 341 nM and the IC50 (FLT3) was 105 nM.
With COc1ccc(N[C@H]2CNCC[C@@H]2F)nc1-c1cnc2cc(OC)c(C3CC3)nn12 [Compound 37a, 6-(6-cyclopropyl-7-methoxyimidazo[1,2-b]pyridazin-3-yl)-N-((3S,4S)-4-fluoropiperidin-3-yl)-5-methoxypyridin-2-amine] the IC50 (IRAK1) was greater than 10000 nM, the IC50 (IRAK4) was 247 nM and the IC50 (FLT3) was 40 nM.
COc1cc2ncc(-c3cc(C)cc(N[C@H]4CNC[C@@H]4F)n3)n2nc1C1CC1 [Compound 50a, 6-(6-cyclopropyl-7-methoxyimidazo[1,2-b]pyridazin-3-yl)-N-((3S,4S)-4-fluoropyrrolidin-3-yl)-4-methylpyridin-2-amine] was tested, and the IC50 (IRAK1) was 8270 nM, the IC50 (IRAK4) was 5240 nM and the IC50 (FLT3) was 2 nM.
COc1cc2ncc(-c3cc(C)cc(N[C@@H]4CCCNC4)n3)n2nc1C1CC1 [Compound 51a, (R)-6-(6-cyclopropyl-7-methoxyimidazo[1,2-b]pyridazin-3-yl)-4-methyl-N-(piperidin-3-yl)pyridin-2-amine] gave an IC50 (IRAK1) greater than 10000 nM, an IC50 (IRAK4) of 4920 nM and an IC50 (FLT3) of 2 nM.
For COc1cc2ncc(-c3cc(C)cc(N[C@H]4CNCC[C@@H]4F)n3)n2nc1C1CC1 [Compound 52a, 6-(6-cyclopropyl-7-methoxyimidazo[1,2-b]pyridazin-3-yl)-N-((3S,4S)-4-fluoropiperidin-3-yl)-4-methylpyridin-2-amine], the IC50 (IRAK1) was greater than 10000 nM, the IC50 (IRAK4) was 1740 nM and the IC50 (FLT3) was 1 nM.
Work on COc1cc2ncc(-c3cc(-c4ccccc4)cc(N[C@H]4CNCC[C@@H]4F)n3)n2nc1C1CC1 [Compound 53a, 6-(6-cyclopropyl-7-methoxyimidazo[1,2-b]pyridazin-3-yl)-N-((3S,4S)-4-fluoropiperidin-3-yl)-4-phenylpyridin-2-amine] yielded an IC50 (IRAK1) of 4590 nM, an IC50 (IRAK4) of 3190 nM and an IC50 (FLT3) of 299 nM.
With COc1cc2ncc(-c3cc(-c4ccccc4)cc(N[C@H]4CNC[C@@H]4F)n3)n2nc1C1CC1 [Compound 54a, 6-(6-cyclopropyl-7-methoxyimidazo[1,2-b]pyridazin-3-yl)-N-((3S,4S)-4-fluoropyrrolidin-3-yl)-4-phenylpyridin-2-amine] the IC50 (IRAK1) was 9510 nM, the IC50 (IRAK4) was 6530 nM and the IC50 (FLT3) was 949 nM.
Work on COc1cc2ncc(-c3cc(-c4ccccc4)cc(N[C@@H]4CCCNC4)n3)n2nc1C1CC1 [Compound 55a, (R)-6-(6-cyclopropyl-7-methoxyimidazo[1,2-b]pyridazin-3-yl)-4-phenyl-N-(piperidin-3-yl)pyridin-2-amine] yielded an IC50 (IRAK1) of 4010 nM, an IC50 (IRAK4) of 4110 nM and an IC50 (FLT3) of 741 nM.
COc1cc2ncc(-c3cc(C4CC4)cc(N[C@H]4CNCC[C@@H]4F)n3)n2nc1C1CC1 [Compound 56a, 4-cyclopropyl-6-(6-cyclopropyl-7-methoxyimidazo[1,2-b]pyridazin-3-yl)-N-((3S,4S)-4-fluoropiperidin-3-yl)pyridin-2-amine] was tested, and the IC50 (IRAK1) was greater than 10000 nM, the IC50 (IRAK4) was 9000 nM and the IC50 (FLT3) was 2 nM.
COc1cc2ncc(-c3cc(C4CC4)cc(N[C@H]4CNC[C@@H]4F)n3)n2nc1C1CC1 [Compound 57a, 4-cyclopropyl-6-(6-cyclopropyl-7-methoxyimidazo[1,2-b]pyridazin-3-yl)-N-((3S,4S)-4-fluoropyrrolidin-3-yl)pyridin-2-amine] was tested, and the IC50 (IRAK1) was greater than 10000 nM, the IC50 (IRAK4) was greater than 10000 nM and the IC50 (FLT3) was 19 nM.
For COc1cc2ncc(-c3cc(C4CC4)cc(N[C@@H]4CCCNC4)n3)n2nc1C1CC1 [Compound 58a, (R)-4-cyclopropyl-6-(6-cyclopropyl-7-methoxyimidazo[1,2-b]pyridazin-3-yl)-N-(piperidin-3-yl)pyridin-2-amine], the IC50 (IRAK1) was greater than 10000 nM, the IC50 (IRAK4) was greater than 10000 nM and the IC50 (FLT3) was 5 nM.
